In patent US20220281846A1, “COMPOUNDS AND COMPOSITIONS FOR THE TREATMENT OF RESPIRATORY DISEASES” (THE UNIVERSITY OF MELBOURNE, priority 2018, published 2022):
Where two headings read alike, the source gives them in different places.

Columns and labels:
[1] = molecular target: T1, human recombinant Casein kinase 18 (CK1δ) (Homo sapiens, UniProt P48730); experiment: Kinase inhibition assay (HotSpot, Reaction Biology Corp), CK1δ; format: biochemical; settings: 10 μM ATP, 10-dose IC50 mode
T1 construct: purchased Reaction Biology Corp
T1 sequence (P48730 whole entry): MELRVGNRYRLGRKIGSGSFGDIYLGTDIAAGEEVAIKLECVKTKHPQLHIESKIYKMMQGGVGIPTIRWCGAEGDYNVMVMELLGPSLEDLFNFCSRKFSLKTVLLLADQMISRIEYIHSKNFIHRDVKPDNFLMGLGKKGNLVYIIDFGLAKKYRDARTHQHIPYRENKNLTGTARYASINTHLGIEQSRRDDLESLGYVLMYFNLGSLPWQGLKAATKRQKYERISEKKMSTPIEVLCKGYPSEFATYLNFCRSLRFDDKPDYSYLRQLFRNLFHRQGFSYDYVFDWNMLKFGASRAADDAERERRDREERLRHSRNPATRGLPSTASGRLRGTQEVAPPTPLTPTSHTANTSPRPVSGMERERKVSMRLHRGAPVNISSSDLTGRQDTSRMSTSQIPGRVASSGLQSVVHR

ERBB4/HER4 = molecular target: T2, ERBB4/HER4 (Homo sapiens, UniProt Q15303); experiment: Kinase inhibition assay (HotSpot), ERBB4/HER4; format: biochemical; settings: 10 μM ATP, 10-dose IC50 mode; read-out: Compound IC50 (M) ERBB4/HER4
T2 construct: purchased Reaction Biology Corp
T2 sequence (Q15303 26-1308): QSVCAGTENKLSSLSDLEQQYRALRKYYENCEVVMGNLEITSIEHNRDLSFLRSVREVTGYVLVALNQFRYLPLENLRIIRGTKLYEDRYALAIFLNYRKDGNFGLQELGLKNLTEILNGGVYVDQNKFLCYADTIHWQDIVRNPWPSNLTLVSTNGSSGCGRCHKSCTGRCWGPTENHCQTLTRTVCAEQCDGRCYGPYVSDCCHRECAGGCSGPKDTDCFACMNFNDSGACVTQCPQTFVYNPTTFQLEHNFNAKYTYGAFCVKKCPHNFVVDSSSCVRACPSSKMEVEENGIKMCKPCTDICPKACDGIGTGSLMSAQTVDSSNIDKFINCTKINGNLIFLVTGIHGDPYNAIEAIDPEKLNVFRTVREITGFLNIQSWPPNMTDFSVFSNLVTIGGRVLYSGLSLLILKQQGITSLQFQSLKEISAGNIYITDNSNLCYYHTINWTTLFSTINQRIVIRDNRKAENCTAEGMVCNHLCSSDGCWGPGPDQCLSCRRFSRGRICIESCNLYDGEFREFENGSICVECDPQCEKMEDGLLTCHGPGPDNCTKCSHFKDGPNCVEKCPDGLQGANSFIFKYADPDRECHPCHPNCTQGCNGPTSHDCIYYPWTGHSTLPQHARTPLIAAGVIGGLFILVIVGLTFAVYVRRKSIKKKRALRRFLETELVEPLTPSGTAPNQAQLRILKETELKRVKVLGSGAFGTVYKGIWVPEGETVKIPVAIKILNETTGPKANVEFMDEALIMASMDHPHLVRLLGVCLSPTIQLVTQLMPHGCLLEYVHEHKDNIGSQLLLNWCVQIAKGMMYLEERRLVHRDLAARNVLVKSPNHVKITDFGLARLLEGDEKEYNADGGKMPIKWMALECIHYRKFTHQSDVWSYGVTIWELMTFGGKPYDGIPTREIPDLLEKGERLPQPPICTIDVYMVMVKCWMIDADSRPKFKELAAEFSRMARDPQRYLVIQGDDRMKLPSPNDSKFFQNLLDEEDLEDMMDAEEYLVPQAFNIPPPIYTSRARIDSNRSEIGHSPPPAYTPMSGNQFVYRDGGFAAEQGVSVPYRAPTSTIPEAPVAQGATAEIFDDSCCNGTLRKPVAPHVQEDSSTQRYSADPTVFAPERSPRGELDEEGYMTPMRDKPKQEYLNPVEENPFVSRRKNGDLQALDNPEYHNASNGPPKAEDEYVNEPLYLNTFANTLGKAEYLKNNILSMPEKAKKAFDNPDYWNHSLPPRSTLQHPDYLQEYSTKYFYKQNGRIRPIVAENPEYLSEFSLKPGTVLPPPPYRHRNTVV

MINK/MINK1 = molecular target: T3, MINK/MINK1 (Homo sapiens, UniProt Q8N4C8); experiment: Kinase inhibition assay (HotSpot), MINK/MINK1; format: biochemical; settings: 10 μM ATP, 10-dose IC50 mode; read-out: Compound IC50 (M) MINK/MINK1
T3 construct: purchased Reaction Biology Corp
T3 sequence (Q8N4C8 whole entry): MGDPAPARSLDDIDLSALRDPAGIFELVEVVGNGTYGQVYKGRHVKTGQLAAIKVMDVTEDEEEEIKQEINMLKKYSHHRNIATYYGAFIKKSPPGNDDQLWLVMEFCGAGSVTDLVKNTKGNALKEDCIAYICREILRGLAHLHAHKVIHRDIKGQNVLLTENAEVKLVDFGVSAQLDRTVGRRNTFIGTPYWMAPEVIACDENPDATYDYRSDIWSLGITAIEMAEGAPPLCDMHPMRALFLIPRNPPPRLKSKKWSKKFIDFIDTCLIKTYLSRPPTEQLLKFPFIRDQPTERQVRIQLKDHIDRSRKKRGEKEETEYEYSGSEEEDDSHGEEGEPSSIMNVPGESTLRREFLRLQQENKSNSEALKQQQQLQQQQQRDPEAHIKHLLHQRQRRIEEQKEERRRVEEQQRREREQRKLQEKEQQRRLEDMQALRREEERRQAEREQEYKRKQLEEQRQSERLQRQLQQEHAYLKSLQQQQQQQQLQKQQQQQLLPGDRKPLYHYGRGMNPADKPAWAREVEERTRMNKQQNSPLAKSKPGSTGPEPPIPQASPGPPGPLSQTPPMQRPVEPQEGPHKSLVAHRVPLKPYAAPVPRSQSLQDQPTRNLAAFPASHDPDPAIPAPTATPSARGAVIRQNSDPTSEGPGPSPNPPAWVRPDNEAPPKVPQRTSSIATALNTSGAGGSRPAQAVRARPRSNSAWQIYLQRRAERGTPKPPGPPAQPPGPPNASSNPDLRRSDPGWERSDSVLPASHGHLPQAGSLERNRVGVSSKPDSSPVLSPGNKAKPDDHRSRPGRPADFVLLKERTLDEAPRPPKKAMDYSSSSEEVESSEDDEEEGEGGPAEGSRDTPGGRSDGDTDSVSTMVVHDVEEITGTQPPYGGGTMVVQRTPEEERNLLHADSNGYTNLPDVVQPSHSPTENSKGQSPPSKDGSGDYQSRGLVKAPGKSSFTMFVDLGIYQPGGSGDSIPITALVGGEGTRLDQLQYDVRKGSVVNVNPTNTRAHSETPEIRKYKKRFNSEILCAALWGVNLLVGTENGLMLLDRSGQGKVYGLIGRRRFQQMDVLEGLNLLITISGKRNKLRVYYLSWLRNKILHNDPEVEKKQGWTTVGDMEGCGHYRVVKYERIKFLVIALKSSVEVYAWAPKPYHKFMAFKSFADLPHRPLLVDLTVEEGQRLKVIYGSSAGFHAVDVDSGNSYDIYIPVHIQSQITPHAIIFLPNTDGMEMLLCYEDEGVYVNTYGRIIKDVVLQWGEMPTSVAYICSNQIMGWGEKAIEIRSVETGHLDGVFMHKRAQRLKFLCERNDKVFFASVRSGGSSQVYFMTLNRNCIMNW

[2] = tested on: TGF-β-induced IL-11 in primary human parenchymal fibroblast cells (pFbs); experiment: Human parenchymal fibroblast cell assay, TGF-β-induced IL-11 (ELISA); format: cell-based; settings: compounds 0.1-10 μM 30 min prior to TGF-β1, 16-24 hours, 4.00* is assigned to compounds that failed to cause 50% or more inhibition at 10 µM, read-out: pIC50 IL-11 suppression (converted)
Description: Human Parenchymal Fibroblast Cell Assay
Primary human parenchymal fibroblast cells (pFbs) were cultured from parenchyma of lung resection specimens and from non-transplanted lungs of donors without chronic respiratory disease. pFbs were passaged in Dulbecco's Modified Eagle's Media (DMEM) containing 10% (v/v) heat-inactivated fetal calf serum (FCS), 15 mM HEPES, 0.2% (v/v) sodium bicarbonate, 2 mM L-glutamine, 1% (v/v) non-essential amino acids, 1% (v/v) sodium pyruvate, 2.5 μg/mL amphotericin, 5 IU/mL penicillin and 50 μg/mL streptomycin. In some experiments the human lung fibroblast cell line, MRC5 (sourced from ATTC) was used as indicated. The MRC5 line was maintained under the same conditions as described for the pFb.
Prior to experimentation, pFb were incubated in serum-free DMEM containing 0.25% bovine serum albumin (BSA) and insulin-transferrin-selenium-containing supplement (Monomed A; CSL, Parkville, Melbourne, Australia). The cells were incubated with small molecular CK1δ inhibitors (0.1-10 μM) for 30 min prior to […] TGF-β1 (R&D Systems, Minneapolis, Minn.) and the incubation continued for 16-24 hours prior to harvest of supernatant for detection of immunoreactive IL-11. Stock solutions were made as 10 mM in 100% DMSO and diluted to the required concentration in medium containing 0.1% DMSO (final concentration).
Supernatants were collected for measurement of IL-11 (R&D DuoSet, DY218) by ELISA following the manufacturers' instructions. Generally, capture antibodies were initially diluted to the recommended concentrations using PBS buffer, and then used to coat the wells of 96-well microplates (Greiner, #655061) by adding 50 μL/well and incubated overnight at room temperature. Next day, solutions were discarded and wells were washed 3 times with wash buffer (PBS containing 0.1% (v/v) Tween-20) prior to the addition of 200 μL of blocking solution (PBS containing 1% (v/v) BSA) for 1 hour to block non-specific sites. Plates were then washed 3 times with wash buffer and 50 μL of samples or standards were then added to wells and incubated for 2 hours at room temperature. After the incubation, plates were washed 3 times with wash buffer and 50 μL of detection antibodies were added to wells and incubated for 2 hours at room temperature. Plates were then washed 3 times before adding streptavidin-conjugated horseradish peroxidase (at the recommended concentrations) for 45 min. Plates were then washed 5 times with wash buffer and 100 μL TMB substrate solution (equal parts A and B, BD Biosciences) was added to each well until sufficient signals emerged. The reactions were inactivated by adding 100 μL sulphuric acid (2M H2SO4). The absorbance was measured at 450 nm using the Multiskan Ascent® plate reader. The absorbance of the cytokine standards was fitted to a logistic equation, allowing the concentrations of cytokine in samples to be determined.
PIC50 values (the negative log of the concentration suppressing IL-11 level by 50%) for inhibition of TGF-β-induced IL-11 were interpolated from the linear regression of log concentration small molecule versus IL-11 level (Table 4 and FIG. 2).

[3] = In vitro metabolic stability, human liver microsomes; format: in vitro ADME
Description: Human Microsomal Stability of Compounds of the Invention
In Vitro Metabolic Stability
Incubation: The metabolic stability assay was performed by incubating each test compound in human liver microsomes at 37° C. and a protein concentration of 0.4 mg/mL. The metabolic reaction was initiated by the addition of an NADPH-regenerating system and quenched at various time points over a 60 minute incubation period by the addition of acetonitrile containing diazepam as internal standard. Control samples (containing no NADPH) were included (and quenched at 2, 30 and 60 minutes) to monitor for potential degradation in the absence of cofactor. The human liver microsomes used in this experiment were supplied by XenoTech, lot #1410230. Microsomal incubations were performed at a substrate concentration of 1 μM. Data analysis: Species scaling factors from Ring et al. (2011) JPharmSci, 100:4090-4110 were used to convert the in vitro CLint (μL/min/mg) to an in vivo CLint(mL/min/kg). Hepatic blood clearance and the corresponding hepatic extraction ratio (EH) were calculated using the well stirred model of hepatic extraction in each species, according to the “in vitro T1/2” approach described in Obach (1999) DrugMetab. Dispos. 27:1350-1359. The EH was then used to classify compounds as low(<0.3), intermediate (0.3-0.7), high (0.7-0.95) or very high (>0.95) extraction compounds. Predicted in vivo clearance values have not been corrected for microsomal or plasma protein binding. Species scaling calculations are based on two assumptions: 1) NADPH-dependent oxidative metabolism predominates over other metabolic routes (i.e. direct conjugative metabolism, reduction, hydrolysis, etc.), and; 2) rates of metabolism and enzyme activities in vitro are truly reflective of those that exist in vivo. If significant non-NADPH-mediated degradation is observed in microsome control samples, then assumption (1) is invalid and predicted clearance parameters are therefore not reported.

[4] = tested on: interleukin-1α (IL1α)-mediated cytokine production by the lung adenocarcinoma cell line A549; experiment: Cellular assay (A549) against IL1α-mediated cytokine production; format: cell-based, human; settings: serum starved A549 cells, compound 30 min prior to IL-1α (1 ng/ml) for 24 h, ELISA
Description: Cellular Assay (A549 Human Lung Adenocarcinoma Cells) Assessing Effect of ZH3-138, ZH3-126 and PF670462 Against IL1α-Mediated Cytokine Production
The anti-inflammatory potential of selected compounds was examined by establishing the effects on interleukin-1α (IL1α)-mediated cytokine production by the lung adenocarcinoma cell line A549. Serum starved A549 cells were treated with various concentrations of the relevant CK1δ inhibitor (PF670462, ZH3-126 and ZH3-138) 30 min prior to IL-1α (1 ng/ml) for 24 h. Supernatant was collected and concentration of IL-6, IL-8 and GM-CSF was detected by ELISA. Data are presented as mean±SEM across three replicates in FIG. 7 (A: IL-6; B: IL-8 and C: GM-CSF).

Structure (SMILES): CCn1cnc(-c2ccc(F)cc2)c1-c1ccnc(NCCO)n1 [ZH3-126, 2-((4-(1-Ethyl-4-(4-fluorophenyl)-1H-imidazol-5-yl)pyrimidin-2-yl)amino)ethan-1-ol]
- IC50 ([1]; read-out: Compound IC50 (M) CK1δ): 6.38e-10 M
- IC50 ([1]; casein kinase 1δ, read-out: pIC50 (converted)): 6.46e-10 M
- IC50 (ERBB4/HER4): 9.52e-06 M
- IC50 (MINK/MINK1): 1.99e-07 M
- IC50 [2]: 1860 nM
- Predicted EH (hepatic extraction ratio) ([3]; human liver microsomes): 0.22
- microsomal CLint at 1 μM ([3]; human liver microsomes, 1 μM): 7 µL/min/mg
- half-life at 1 μM ([3]; human liver microsomes, 1 μM, 0.4 mg/mL protein, 37° C.): 4.03 h
- Predicted CLblood ([3]; scaled from human liver microsomes, well stirred model): 5 mL/min/kg
- CLint scaled at 1 μM ([3]; scaled from human liver microsomes, read-out: Predicted CLint, in vivo): 6 mL/min/kg
- supernatant concentrations of inflammatory biomarkers (IL-6, IL-8, GM-CSF) [4]: ability to reduce supernatant concentrations of other inflammatory biomarkers
